Assay type: physicochemical
Conditions: 2-propanol/water systems

SMILES | stabilizing properties (in words)
C1=Cc2ccccc2C1 [indene] | failed to show any stabilizing properties
C1=CC2C3C=CC(C3)C2C1 (centres unmarked) [dicylopentadiene] | failed to show any stabilizing properties

Source: patent publication US5160526A, “Alkene stabilizers for 3-isothiazolone compounds” (priority 1991, dated 1992)
